Data published in patent US6593358B1, “Thienyl-pyrazoles and their use for controlling pests” (Nihon Bayer Agrochem K.K., priority 1999, dated 2003).

How the values were obtained:
[1] = system: Meloidogyne incognita; assay: Test against Meloidogyne spp. (soil pot test); format: in vivo; details: soil contaminated with Meloidogyne incognita, final concentration 50 ppm; tomato (Kurihara) in pots, greenhouse 4 weeks; from root knot index
Procedure: Test Against Meloidogyne spp. (Soil Pot Test)
Preparation of Test Agent:
1 Part of the active compound is impregnated to 99 parts of pumice to obtain fine granules.
The active compound prepared as mentioned above is added to soil contaminated with Meloidogyne incognita to a final concentration of 50 ppm and then homogeneously mixed by stirring. Then a pot (1/5000 are) was filled with the soil. About 20 seeds of tomato (variety: Kurihara) were sown per pot. After cultivation in a greenhouse for 4 weeks, they were carefully pulled out not to damage the root and the root knot index and the controlling effect of the compound tested were determined as follows:
Degree of damage 0: No knot was formed (Complete control).
1: A few knots were formed.
2: Knots were formed to a medium extent.
3: Knots were formed to an intense extent.
4: Knots were formed to the most intense extent (which corresponds to non-treatment).
Based on the degree of damage acording to the aforementioned standard (0-4), the root knot index can be determined as follows (Equation 1) [formula]
The controlling effect which can be achieved by applying compounds according to the present invention can then be determined as follows (Equation 2): [formula]
The evaluation of the controlling effect towards nematodes is then done by connecting the values of the controlling effect with the following standards (a-d): […]

Compound	melting point [°C]	Evaluation of controlling effect [1]
ClCCOc1cc(-c2cccs2)n[nH]1	134 to 138	
Oc1cc(-c2cccs2)n[nH]1	144 to 146	
CCCCc1cc(-c2cccs2)n[nH]1 [Compound 82, 3-(2-thienyl)-5-n-butylpyrazole]	47 to 48	a (Controlling effect 100-71%)
CCCCCc1cc(-c2cccs2)n[nH]1 [Compound 83, 3-(2-thienyl)-5-n-pentylpyrazole]	68 to 73	a (Controlling effect 100-71%)

Second part, led by results:

melting point [°C]	Compound	Evaluation of controlling effect [1]
53 to 55	CCCCCCc1cc(-c2cccs2)n[nH]1	
133 to 135	Cc1cc(-c2cccs2)n[nH]1	
